# Results published in PMC4925161, “EssC: domain structures inform on the elusive translocation channel in the Type VII secretion system” (Biochemical Journal, 2016).
# Assays:
# EssC-C [1] = target: T1, EssC-C (Geobacillus thermodenitrificans, UniProt A4IKE7); assay: fluorescence titration (excitation […] nm, emission […] nm); format: binding; set-up: gene eccC; C-terminal fragment, residues 966-1479 (ATPase modules D2 and D3); N-terminal His6 tag removed with TEV; E. coli host
# EssC-C [2] = target: T1, EssC-C; set-up: gene eccC; conditions: D2 nucleotide site; ATP modelled in the second molecule (mant density ambiguous, crystal grown with mant-ATP); also present in SeMet structure without added nucleotide; displaces mant-ATP
# [3] = target: the molecule itself; assay: native gel or EMSA; blue native PAGE, linear 4-12% gradient native Bis-Tris gels; 8 ug purified EssC-C or 5 ug full-length EssC (DDM-solubilized) loaded; band identity by peptide mass fingerprinting
molecule,measurement,setting,value
"CNc1ccccc1C(=O)O[C@H]1[C@@H](O)[C@H](n2cnc3c(N)ncnc32)O[C@@H]1CO[P@@](=O)(O)O[P@](=O)(O)OP(=O)(O)O (mixture of isomers) [mant-ATP, 2′/3′-(N-methyl-anthraniloyl)-adenosine-5′-triphosphate]",Kd,EssC-C [1],940 ± 110 nM
Nc1ncnc2c1ncn2[C@@H]1O[C@H](COP(=O)(O)OP(=O)(O)OP(=O)(O)O)[C@@H](O)[C@H]1O [ATP],X-ray crystal structure (2.9 Å); displacement of mant-ATP fluorescence,EssC-C [2],ATP was present in the nucleotide-binding site of the D2 module
"full-length membrane-bound EssC from Geobacillus thermodenitrificans NG80-2 (natural protein, UniProt A4IKE7 1-1479, looked up, also called full-length EssC; full-length recombinant protein; source: E. coli LEMO21(DE3), membranes solubilized with DDM, purified (His-Trap, SEC on Superdex 200 with 0.03% DDM)) MSQLWVLYETYCQLFSLTNEEKVIVIGNQLEHHVTVSSFSFRNGYIQIEKKSDGSTLAVLQGGRQIGELKPRCSITIDVDGQQMTIAWSGEEQRKYVYYVGQQSEVLVSNDPQADIETTNARFSLRKHRGQWVVIPDDDAPLFLNGVQLSDAVSLRNGDVLLCPYMQFVFIEEDLLAVTSSEEVVSSLTETMPPLSEMKKKYPMYRRTPRMIYELPSDKVSISFPSQEGDGDPRGLWLMVLPPVMMLLVIGAVALIQPRGVFIMISIAMFATTIVTSTAQYMREKKARQMRKEKRRRIYTNYLEQKREELQALSEKQRNVLYYHFPSFEQMKSFVMQVNSRIWERTAESADFLHVRIGTADVPATYEVSVSMGDLANREIDDLLEQAQHIAKVYQTVKHVPLPIDVSHGAIGMVGKRSIVNGEIEQLVGQIAFFHSYHDVRFVAIFSEDDYKHWEWMKWLPHFQLPNSFAKGLIYNEQTRDQLLSSIYEMLRERALDEEKDKKRFSPHFVFIVADRSLIAEHVILEYLEEKNEDIGISVIFASETKESLTENVHTLVQYINEREGEIVIQHRKAAHIPFQLDEHSTEGNESFARMLRSLNHQKGMSNSIPEKVTFLEMMQTRRANELQIVQNWLSCQTSRSLAVPIGLKGRNDVVELNLHEKAHGPHGLVAGTTGSGKSELLQTYILSLAVHFHPHEVAFLIIDYKGGGMAQPFKNMPHLLGTITNIHGSKNFSARALASINSELKKRQRLFDRYEVNHINDYMELYKQGKAEQPLPHLFLIADEFAELKSEEPDFIRELVSAARIGRSLGVHLILATQKPRGVIDEQIWSNARFRISLKMQDVNDSKEILRNGDAAAITVPGRAYLQVGNNEVYELFQSAWSGAPYVEEGVEAEDEIHIVTDLGLVPVSNVATDRKRSRQKPKTEIEMVVEQIIETQKQLNIEKLPSPWLPPLPPRLARPASVTAEANAFPIGLKDEPELQSQSDYFYQWLEDGNIGIFGSAGYGKSTTMMTLLLSFAGAYNPAQLHYYIFDFGNSALLPLRQLPHTADYFRLDDEKKIEKFIKFMKEEMEQRKQRFMEKEVSTIKLYNALSEEKLPIIIVALDNFDVVKEEMPDFETQLIQYARDGQSLGIFFIMTATRVSGIRPPLMNNLKTKIVHYFIDSSEKFSLIGRTPYDVDPIPGRALIKKDNAALTQIYLPADGEDDIEVLENVKREMERLKEVYQHIPKPKPIPMLPPRLSMSVFTNTYVQHRASGFIPVGLDEQTVRPVAINMRTDPHCLIVGQSRKGKTNVVKVILESLLVQEPESIGLLDGIDRGLAGYANRDDITYIEAKERLAQWLNEADAVLQQREREYIQAVNENRATTLAWPPVVFVVDSLLRLQQETDSIMQGRIANMMKQYSHLGFHVFVAGNANEFVKGFDALTAELKQIRQAILVTKKSEQSLFALPFTRNEQEIEPGFGYFVVGGKDQKIQIPKVE",stoichiometry N,[3],~6
